Experimental findings from patent US5496826A, “Pharmaceutical methods of using heterocyclic derivatives of N-phenylamides” (Bristol-Myers Squibb Company, priority 1994, dated 1996) are described below.

Experiment [1] has as its system tonic seizure produced by 50 milliamps current through corneal electrodes (hind limb tonic extension). Nature of the experiment: Maximum Electroshock Test (MES). The experiment is classed as in vivo, female C57Bl/6 mice. The note with it: Mus musculus, ip, 0.5 h; mice, i.p. 30 min before MES; abolition of hind limb tonic extension; read-out: MES Results: median effective dose (ED50). On the procedure: (§1) The anticonvulsive properties of the compounds of the invention were evaluated using two standard animal models of epilepsy: the maximal electroshock test (MES) and the pentylenetetrazol (PTZ)-induced seizure procedure. Melatonergic action is indicated by binding studies done in hamster hypothalamus tissue.
2. Maximum Electroshock Test
The MES procedure used is based upon the tests disclosed by Swinyard and et al in J. Pharmacol, Expt. Ther., (1952) 106, 319 and L. A. Woodbury et al in Arch. Int. Pharmocodyn, (1952), 92-97. These tests are also described in U.S. Pat. Nos. 5,242,942 and 5,240,937, respectively.
In the MES procedure, a tonic seizure was produced in female C57Bl/6 mice (17-26 g) by the delivery of a 50 milliamps current through corneal electrodes for 0.2 sec. Before testing, the animals were allowed food and water ad libitum. Compounds were injected i.p. 30 min before the MES. Reference compounds (phenytoin, carbamazepine, phenobarbital, and valproic acid) were tested at the peak of activity and at the dose range reported in the literature. Seven mice were used per group. In this test anticonvulsive activity was indicated by the abolition of the hind limb tonic extension. The median effective dose (ED50) was obtained for each compound and compared to ED50 's of reference compound(s).

The test system of experiment [2] is pentylenetetrazol (PTZ)-induced seizures. The experiment is described as follows: Pentylenetetrazole (PTZ)-Induced Seizure Test. The experiment is classed as in vivo, female C57BI/6 mice. The note with it: 50 mg/kg i.p., mice, 30 min before 75 mg/kg PTZ i.p. The protocol: as §1
1. Pentylenetetrazole--Induced Seizure Test
The PTZ technique employed was similar to that disclosed in P.C.T. publication WO 93/0572 (PCT/US92/07675), published on Apr. 1, 1993.
In the PTZ procedure, female C57BI/6 mice (17-26 g) were injected j.p. (vol=0.1 ml/20 g) with test compound or vehicle 30 min before i.p. administration of 75 mg/kg pentylenetetrazol. Multiple doses of reference compounds (ethosuximide, trimethadione, and pentobarbital) were tested at the peak of activity and at the dose range reported in the literature. Ten mice were used per group. After injection, mice were placed in individual observation cages and monitored for one hour. During the first thirty minutes following PTZ injection, seizure activity was recorded by measure: the latency to the onset of pre-convulsive activity (Pre) the latency to the onset of the first clonic seizure longer than five seconds (First) the latency to the onset of the first intense-generalized clonic/tonic seizure (IGS) and the length of survival (Surv Time). During the second thirty-minute period, only time of death was recorded.
Those compounds that produced a significant delay in the onset of seizure activity or delayed (or abolished) mortality when compared to that produced by vehicle (reference) were classified as anticonvulsants. Significant differences between animals treated with reference or test compounds were determined using the Student's t-test.

One may read the ED50 as the midpoint of the dose-response relation. For `CC(=O)Nc1ccccc1-c1nc2ccccc2o1` [Example 11, N-[2-(benzoxazol-2-yl)phenyl] acetamide], in experiment [1], the ED50 was less than 75 mg/kg.

For `CCC(=O)Nc1ccccc1-c1nc2ccccc2[nH]1` [Example 1, N-[2-(1H-benzimidazol-2-yl)phenyl] propanamide], the median effective dose (ED50) in experiment [1] is less than 25 mg/kg.

As to `CNC(=O)Nc1ccccc1-c1nc2ccccc2o1` [Example 12, N-[2-(benzoxazol-2-yl)phenyl]-N'-methyl urea], in experiment [1], the ED50 was less than 100 mg/kg. Besides, in experiment [2], the “First: latency to first seizure” value was “+++ (>300% controls)”; the “IGS: onset of intense, generalized seizures” value is on record as “+ (>100% controls)”; the “Pre: latency to first twitch” value is on record as “+ (>100% controls)”; the “Surv Time: duration of survival” value was “++ (>200% controls)”. Moreover, the “Surv: survival at one hour postPTZ” value in experiment [2] is listed as “++ (>200% controls)”.

For the compound `COc1ccc2[nH]c(-c3ccccc3NC(C)=O)nc2c1` [Example 15, N-[2-(5-methoxy-1H-benzimidazol-2-yl)phenyl] acetamide], in experiment [2], the “First: latency to first seizure” value is on record as “+ (>100% controls)”, the “Pre: latency to first twitch” value was “+ (>100% controls)” and the “Surv Time: duration of survival” value is “++ (>200% controls)”.

With `COCC(=O)Nc1ccccc1-c1nc2ccccc2[nH]1` [Example 2, N-[2-(benzimidazol-2-yl)phenyl] methoxyacetamide], the ED50 in experiment [1] was less than 75 mg/kg.

On to `CC(=O)Nc1ccccc1-c1nc2ccccc2s1` [Example 13, N-[2-(benzthiazol-2-yl)phenyl] acetamide], for which, in experiment [1], the ED50 was less than 25 mg/kg.

With `CNC(=O)Nc1ccccc1-c1nc2ccccc2[nH]1` [Example 10, N-[2-(benzimidazol-2-yl)phenyl]-N'-methyl urea], the ED50 in experiment [1] was less than 75 mg/kg. Also, in experiment [2], the “First: latency to first seizure” value is on record as “++ (>200% controls)”, the “Pre: latency to first twitch” value was “+ (>100% controls)”, the “Surv Time: duration of survival” value is given as “++ (>200% controls)” and the “Surv: survival at one hour postPTZ” value is reported as “++++ (>400% controls)”.
